Values joined by “and” are separate entries in the source; they are usually repeats but may differ in a detail not shown here. Equal values may be shown once.
Assay: Plasma pharmacokinetics after oral multi-dose anatabine polacrilex
Assay type: in vivo, Sprague-Dawley rats
Conditions: for Anatabine Concentration in rat plasma: dose 0.2 mg/kg, male, individual animals
Procedure: This study consisted of two groups of 8 animals each, 4 males and 4 females.
The vehicle was sterile phosphate buffered saline (PBS) (Amresco). […] Two formulations were prepared; one for each of the two treatment groups. The test compound was formulated for each treatment group just prior to the first dose administration and constantly stirred until dosing was completed (Table 37). Four aliquots of each dose level formulation were collected and stored at −80° C.
The animals were weighed prior to dosing and received three doses p.o. of test compound at a volume of 5 mL/kg. Blood was collected via the venus plexus (retro-orbital) into tubes containing (K2) EDTA. No more than 0.5 mL was collected per time point.
Sample preparation. Plasma samples were treated with three volumes of methanol containing internal standard at 1 μM (R,S)-Antabine-2,4,5,6-d4), incubated 10 min at 4° C., and centrifuged. The amount of the test agent in the supernatant was determined by LC/MS/MS.
Analysis. Samples were analyzed by LC/MS/MS using an Agilent 6410 mass spectrometer coupled with an Agilent 1200 high pressure liquid chromatography (HPLC) and a CTC PAL chilled autosampler, all controlled by MassHunter software (Agilent). After separation on a Hydrophilic interaction liquid chromatography (HILIC) HPLC column (Sepax) using an acetonitrile-ammonium acetate/acetic acid gradient system, peaks were analyzed by mass spectrometry (MS) using ESI ionization in multiple reaction monitoring (MRM) mode. MassHunter software was used to calculate the concentration of the test compounds in samples from the peak area using the appropriate calibration curves.
Descriptive statistics were calculated for all pharmacokinetic parameters. Elimination half-lives (t1/2) were calculated by linear regression of logarithmically transformed plasma concentration data for each period between doses and following the final dose.
Total areas under the plasma concentration curves (AUC) and under the first moment curves (AUMC) were calculated using linear trapezoidal summation across all concentration time points as well as for intervals between each dose administration and following the final dose. […] Mean absorption times (MAT) were calculated according to the following relation: […]

[1] = Anatabine 0.6 mg/kg, female rats, mean
[2] = Anatabine 0.6 mg/kg, male and female combined, mean
[3] = Anatabine 0.6 mg/kg, male rats, mean
[4] = Anatabine 6.0 mg/kg, female rats, mean
[5] = Anatabine 6.0 mg/kg, male and female combined, mean
[6] = Anatabine 6.0 mg/kg, male rats, mean
[7] = all data combined (overall), mean
[8] = both treatment groups combined, female rats, mean
[9] = females, 6.0 mg/kg BW group (3 x 2.0 mg/kg p.o.)

C1=CCC(c2cccnc2)NC1 (racemic) [Anatabine, 1,2,3,6-tetrahydro-[2,3′]bipyridinyl]
AUC0→∞ [1]: 290 ng·h/mL
MAT0→4 (mean absorption time) [1]: 0.53 h
t1/2, 0→4 (elimination half-life after first dose) [1]: 2.06 h
t1/2, terminal [1]: 1.80 h
MAT0→4 (mean absorption time) [2]: 0.61 h
MTT0→4 (mean transit time) [2]: 3.06 h
AUC0→∞ [3]: 280 ng·h/mL
MAT0→4 (mean absorption time) [3]: 0.71 h
t1/2, terminal [3]: 1.78 h
Cp, max (1) (Anatabine 6.0 mg/kg, female rats, after dose 1, mean): 260 ng/mL
MAT0→4 (mean absorption time) [4]: 0.30 h
t1/2, 0→4 (elimination half-life after first dose) [4]: 1.82 h
MAT0→4 (mean absorption time) [5]: 0.52 h
MTT0→4 (mean transit time) [5]: 2.97 h
MAT0→4 (mean absorption time) [6]: 0.73 h
t1/2, 0→4 (elimination half-life after first dose) [6]: 1.76 h
concentration at 30 min (Sprague-Dawley, rat, plasma, oral, 2 mg/kg BW, dose group 2, female, 30 min, mean): 160 ng/mL
concentration at 60 min (Sprague-Dawley, rat, plasma, oral, 2 mg/kg BW, dose group 2, female, 60 min, mean): 129 ng/mL
concentration at 235 min (Sprague-Dawley, rat, plasma, oral, 2 mg/kg BW, dose group 2, female, 235 min, mean): 44 ng/mL
concentration at 270 min (Sprague-Dawley, rat, plasma, oral, 2 mg/kg BW, dose group 2, female, 270 min, mean): 316 ng/mL
concentration at 300 min (Sprague-Dawley, rat, plasma, oral, 2 mg/kg BW, dose group 2, female, 300 min, mean): 234 ng/mL
concentration at 475 min (Sprague-Dawley, rat, plasma, oral, 2 mg/kg BW, dose group 2, female, 475 min, mean): 192 ng/mL
concentration at 540 min (Sprague-Dawley, rat, plasma, oral, 2 mg/kg BW, dose group 2, female, 540 min, mean): 386 ng/mL
concentration at 600 min (Sprague-Dawley, rat, plasma, oral, 2 mg/kg BW, dose group 2, female, 600 min, mean): 325 ng/mL
concentration at 720 min (Sprague-Dawley, rat, plasma, oral, 2 mg/kg BW, dose group 2, female, 720 min, mean): 208 ng/mL
MAT0→4 (mean absorption time) [7]: 0.56 h
MTT0→4 (mean transit time) [7]: 3.01 h
t1/2, 0→4 (elimination half-life after first dose) [7]: 1.93 h
MAT0→4 (mean absorption time) [8]: 0.42 h
MTT0→4 (mean transit time) [8]: 2.87 h
t1/2, 0→4 (elimination half-life after first dose) [8]: 1.94 h
MAT0→4 (mean absorption time) (both treatment groups combined, male rats, mean): 0.72 h
Anatabine Concentration in rat plasma (30 min): <LOQ
Anatabine Concentration in rat plasma (235 min): <LOQ
Anatabine Concentration in rat plasma (475 min): <LOQ
Anatabine Concentration in rat plasma (600 min): <LOQ
Anatabine Concentration in rat plasma (720 min): <LOQ
Avg. Conc. of Anatabine in plasma (dose group 0.2, combined male and female, 30 min, mean): 36 ng/mL
Avg. Conc. of Anatabine in plasma (dose group 0.2, combined male and female, 60 min, mean): 31 ng/mL
Avg. Conc. of Anatabine in plasma (dose group 0.2, combined male and female, 235 min, mean): 10 ng/mL
Avg. Conc. of Anatabine in plasma (dose group 0.2, combined male and female, 270 min, mean): 26 ng/mL
Avg. Conc. of Anatabine in plasma (dose group 0.2, combined male and female, 300 min, mean): 27 ng/mL
Avg. Conc. of Anatabine in plasma (dose group 0.2, combined male and female, 475 min, mean): 11 ng/mL
Avg. Conc. of Anatabine in plasma (dose group 0.2, combined male and female, 540 min, mean): 30 ng/mL
Avg. Conc. of Anatabine in plasma (dose group 0.2, combined male and female, 600 min, mean): 26 ng/mL
Avg. Conc. of Anatabine in plasma (dose group 0.2, combined male and female, 720 min, mean): 13 ng/mL
Avg. Conc. of Anatabine in plasma (dose group 0.2, female, 30 min, mean): 37 ng/mL
Avg. Conc. of Anatabine in plasma (dose group 0.2, female, 60 min, mean): 35 ng/mL
Avg. Conc. of Anatabine in plasma (dose group 0.2, female, 235 min, mean): 12 ng/mL
Avg. Conc. of Anatabine in plasma (dose group 0.2, female, 270 min, mean): 26 ng/mL
Avg. Conc. of Anatabine in plasma (dose group 0.2, female, 300 min, mean): 34 ng/mL
Avg. Conc. of Anatabine in plasma (dose group 0.2, female, 475 min, mean): 8 ng/mL
Avg. Conc. of Anatabine in plasma (dose group 0.2, female, 540 min, mean): 34 ng/mL
Avg. Conc. of Anatabine in plasma (dose group 0.2, female, 600 min, mean): 28 ng/mL
Avg. Conc. of Anatabine in plasma (dose group 0.2, female, 720 min, mean): 12 ng/mL
Avg. Conc. of Anatabine in plasma (dose group 0.2, male, 30 min, mean): 33 ng/mL
Avg. Conc. of Anatabine in plasma (dose group 0.2, male, 60 min, mean): 30 ng/mL
Avg. Conc. of Anatabine in plasma (dose group 0.2, male, 235 min, mean): 11 ng/mL
Avg. Conc. of Anatabine in plasma (dose group 0.2, male, 270 min, mean): 26 ng/mL
Avg. Conc. of Anatabine in plasma (dose group 0.2, male, 300 min, mean): 26 ng/mL
Avg. Conc. of Anatabine in plasma (dose group 0.2, male, 475 min, mean): 18 ng/mL
Avg. Conc. of Anatabine in plasma (dose group 0.2, male, 540 min, mean): 38 ng/mL
Avg. Conc. of Anatabine in plasma (dose group 0.2, male, 600 min, mean): 29 ng/mL
Avg. Conc. of Anatabine in plasma (dose group 0.2, male, 720 min, mean): 12 ng/mL
Avg. Conc. of Anatabine in plasma (dose group 2, combined male and female, 30 min, mean): 201 ng/mL
Avg. Conc. of Anatabine in plasma (dose group 2, combined male and female, 60 min, mean): 139 ng/mL
Avg. Conc. of Anatabine in plasma (dose group 2, combined male and female, 235 min, mean): 63 ng/mL
Avg. Conc. of Anatabine in plasma (dose group 2, combined male and female, 300 min, mean): 222 ng/mL
Avg. Conc. of Anatabine in plasma (dose group 2, combined male and female, 600 min, mean): 237 ng/mL
Avg. Conc. of Anatabine in plasma (dose group 2, combined male and female, 720 min, mean): 194 ng/mL
Avg. Conc. of Anatabine in plasma (dose group 2, male, 30 min, mean): 243 ng/mL
Avg. Conc. of Anatabine in plasma (dose group 2, male, 60 min, mean): 165 ng/mL
Avg. Conc. of Anatabine in plasma (dose group 2, male, 235 min, mean): 72 ng/mL
Avg. Conc. of Anatabine in plasma (dose group 2, male, 270 min, mean): 303 ng/mL
Avg. Conc. of Anatabine in plasma (dose group 2, male, 300 min, mean): 183 ng/mL
Avg. Conc. of Anatabine in plasma (dose group 2, male, 475 min, mean): 97 ng/mL
Avg. Conc. of Anatabine in plasma (dose group 2, male, 540 min, mean): 226 ng/mL
Avg. Conc. of Anatabine in plasma (dose group 2, male, 600 min, mean): 151 ng/mL
Avg. Conc. of Anatabine in plasma (dose group 2, male, 720 min, mean): 203 ng/mL
Cp, max, final value [9]: 374.8 ± 122.9 ng/mL
Cp, max, initial value [9]: 259.8 ± 35.4 ng/mL
Cp, min(2) (females, 6.0 mg/kg BW group, 6 mg/kg): 180 ± 31 ng/mL and 180.0 ± 30.7 ng/mL

From US20160030407A1, “Method of Treating Inflammatory Lung Disease” (priority 2010, published 2016)
